Measurements taken from PubChem BioAssay AID1259407 (Chemical Carcinogenesis Research Information System (CCRIS), 2018).
Activity calls are given as the source filed them. How the calls were made is not given here.

System: CCRIS mutagenicity, Ames/micronucleus/aberration tests
Experiment: CCRIS mutagenicity studies
Settings: Test System: AMES SALMONELLA TYPHIMURIUM

Measured: mutagenic call

CCN(N=O)c1ccccc1
inactive: Strain/Indicator: TA98, Metabolic Activation: HAMSTER, LIVER, S-9, AROCLOR 1254, Method: PREINCUBATION inactive; negative | Strain/Indicator: TA98, Metabolic Activation: HAMSTER, LIVER, S-9, AROCLOR 1254, Method: STANDARD PLATE inactive; negative | Strain/Indicator: TA98, Metabolic Activation: HAMSTER, LIVER, S-9, Method: PREINCUBATION inactive; negative | Strain/Indicator: TA98, Metabolic Activation: HAMSTER, LIVER, S-9, Method: STANDARD PLATE inactive; negative | Strain/Indicator: TA98, Metabolic Activation: MOUSE, LIVER, S-9, AROCLOR 1254, Method: PREINCUBATION inactive; negative | Strain/Indicator: TA98, Metabolic Activation: MOUSE, LIVER, S-9, AROCLOR 1254, Method: STANDARD PLATE inactive; negative | Strain/Indicator: TA98, Metabolic Activation: MOUSE, LIVER, S-9, Method: PREINCUBATION inactive; negative | Strain/Indicator: TA98, Metabolic Activation: MOUSE, LIVER, S-9, Method: STANDARD PLATE inactive; negative | Strain/Indicator: TA98, Metabolic Activation: NONE, Method: PREINCUBATION inactive; negative | Strain/Indicator: TA98, Metabolic Activation: NONE, Method: STANDARD PLATE inactive; negative | Strain/Indicator: TA98, Metabolic Activation: RAT, LIVER, S-9, AROCLOR 1254, Method: PREINCUBATION inactive; negative | Strain/Indicator: TA98, Metabolic Activation: RAT, LIVER, S-9, AROCLOR 1254, Method: STANDARD PLATE inactive; negative | Strain/Indicator: TA98, Metabolic Activation: RAT, LIVER, S-9, Method: PREINCUBATION inactive; negative | Strain/Indicator: TA98, Metabolic Activation: RAT, LIVER, S-9, Method: STANDARD PLATE inactive; negative | Strain/Indicator: TA100, Metabolic Activation: HAMSTER, LIVER, S-9, AROCLOR 1254, Method: PREINCUBATION inactive; negative | Strain/Indicator: TA100, Metabolic Activation: HAMSTER, LIVER, S-9, AROCLOR 1254, Method: STANDARD PLATE inactive; negative | Strain/Indicator: TA100, Metabolic Activation: HAMSTER, LIVER, S-9, Method: PREINCUBATION inactive; negative | Strain/Indicator: TA100, Metabolic Activation: HAMSTER, LIVER, S-9, Method: STANDARD PLATE inactive; negative | Strain/Indicator: TA100, Metabolic Activation: MOUSE, LIVER, S-9, AROCLOR 1254, Method: PREINCUBATION inactive; negative | Strain/Indicator: TA100, Metabolic Activation: MOUSE, LIVER, S-9, AROCLOR 1254, Method: STANDARD PLATE inactive; negative | Strain/Indicator: TA100, Metabolic Activation: MOUSE, LIVER, S-9, Method: PREINCUBATION inactive; negative | Strain/Indicator: TA100, Metabolic Activation: MOUSE, LIVER, S-9, Method: STANDARD PLATE inactive; negative | Strain/Indicator: TA100, Metabolic Activation: NONE, Method: PREINCUBATION inactive; negative | Strain/Indicator: TA100, Metabolic Activation: NONE, Method: STANDARD PLATE inactive; negative | Strain/Indicator: TA100, Metabolic Activation: RAT, LIVER, S-9, AROCLOR 1254, Method: PREINCUBATION inactive; negative | Strain/Indicator: TA100, Metabolic Activation: RAT, LIVER, S-9, AROCLOR 1254, Method: STANDARD PLATE inactive; negative | Strain/Indicator: TA100, Metabolic Activation: RAT, LIVER, S-9, Method: PREINCUBATION inactive; negative | Strain/Indicator: TA100, Metabolic Activation: RAT, LIVER, S-9, Method: STANDARD PLATE inactive; negative | Strain/Indicator: TA1535, Metabolic Activation: HAMSTER, LIVER, S-9, AROCLOR 1254, Method: PREINCUBATION inactive; negative | Strain/Indicator: TA1535, Metabolic Activation: HAMSTER, LIVER, S-9, AROCLOR 1254, Method: STANDARD PLATE inactive; negative | Strain/Indicator: TA1535, Metabolic Activation: HAMSTER, LIVER, S-9, Method: PREINCUBATION inactive; negative | Strain/Indicator: TA1535, Metabolic Activation: HAMSTER, LIVER, S-9, Method: STANDARD PLATE inactive; negative | Strain/Indicator: TA1535, Metabolic Activation: MOUSE, LIVER, S-9, AROCLOR 1254, Method: PREINCUBATION inactive; negative | Strain/Indicator: TA1535, Metabolic Activation: MOUSE, LIVER, S-9, AROCLOR 1254, Method: STANDARD PLATE inactive; negative | Strain/Indicator: TA1535, Metabolic Activation: MOUSE, LIVER, S-9, Method: PREINCUBATION inactive; negative | Strain/Indicator: TA1535, Metabolic Activation: MOUSE, LIVER, S-9, Method: STANDARD PLATE inactive; negative | Strain/Indicator: TA1535, Metabolic Activation: NONE, Method: PREINCUBATION inactive; negative | Strain/Indicator: TA1535, Metabolic Activation: NONE, Method: STANDARD PLATE inactive; negative | Strain/Indicator: TA1535, Metabolic Activation: RAT, LIVER, S-9, AROCLOR 1254, Method: PREINCUBATION inactive; negative | Strain/Indicator: TA1535, Metabolic Activation: RAT, LIVER, S-9, AROCLOR 1254, Method: STANDARD PLATE inactive; negative | Strain/Indicator: TA1535, Metabolic Activation: RAT, LIVER, S-9, Method: PREINCUBATION inactive; negative | Strain/Indicator: TA1535, Metabolic Activation: RAT, LIVER, S-9, Method: STANDARD PLATE inactive; negative
